This passage reports TGI and GI50 results from PubChem BioAssay (NCI).

Some test systems named below: UO-31 renal; A498 renal; PC-3 prostate; SF-539 CNS; HOP-92 NSCLC; SW-620 colon; COLO 205 colon; HT29 colon; EKVX NSCLC; HS 578T breast.
Holding throughout (experiment): NCI tumour cell line growth inhibition, 48 h

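A five-concentration, 48-hour dose response in 96-well plates underlies each endpoint, interpolated linearly between surrounding concentrations. Abbreviation: GI50, concentration required for 50% inhibition of growth. At the TGI there is no net growth.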

Turning to `CC(C)c1nccn1Cc1ccc(Cl)cc1Cl`, the TGI in the test on UO-31 renal, with A498 renal, with PC-3 prostate, in the test with SF-539 CNS, in the test on HOP-92 NSCLC and in the test on SW-620 colon was above 100 µM throughout. Moreover, the TGI with COLO 205 colon, in the test with HT29 colon and in the test on EKVX NSCLC was above 100 µM each time.
Regarding `CC1(C)N=C(N)N=C(N)N1c1ccc(OCCCOc2ccccc2)c(Cl)c1`, the TGI is above 23.8 µM with UO-31 renal; 30.2 µM in the test on A498 renal; 15.5 µM with SF-539 CNS; 3.83 µM in the test on HOP-92 NSCLC; 13.7 µM with SW-620 colon; 15.1 µM in the test with COLO 205 colon. The TGI came out at 10.5 µM in the test on HT29 colon and 14.4 µM in the test on EKVX NSCLC.
Take `COc1ccc(N2C(=O)/C(=C/c3ccc(N(CCC#N)CCC#N)cc3)N=C2c2ccccc2)c(OC)c1`: the TGI in the test with UO-31 renal is above 100 µM; in the test with HS 578T breast, above 100 µM; with SF-539 CNS, above 100 µM; in the test with HOP-92 NSCLC it was 68.9 µM; in the test with SW-620 colon, above 100 µM; with COLO 205 colon it was above 100 µM. The TGI with HT29 colon and in the test on EKVX NSCLC was above 100 µM throughout.
Turning to `CC(=O)[C@H]1CCC2[C@@H]3CC=C4C(O)C(OS(=O)(=O)O)CC[C@]4(C)C3CC[C@@]21C` (some centres undefined), the TGI in the test with UO-31 renal, in the test with A498 renal, in the test on SF-539 CNS, in the test with HOP-92 NSCLC, in the test with SW-620 colon and in the test with COLO 205 colon was above 100 µM throughout. In addition, the TGI with HT29 colon and in the test on EKVX NSCLC was above 100 µM throughout.
With `O=C(NC/C=C/Br)NC1CCNc2ccccc21` (centres undefined), the TGI with UO-31 renal was 62.6 µM; in the test on A498 renal, 70.4 µM; in the test on PC-3 prostate it was above 100 µM; in the test with SF-539 CNS it was 45.8 µM; in the test on SW-620 colon, above 100 µM; in the test on COLO 205 colon, 37.7 µM. Moreover, the TGI in the test with HT29 colon was determined as 31.2 µM; in the test on EKVX NSCLC, 92.6 µM.
In the case of `CSC1NNC2(C(=O)N1)c1ccccc1-c1ccccc12` (centres undefined), the TGI in the test on UO-31 renal, with HS 578T breast, in the test on PC-3 prostate, in the test on SF-539 CNS, in the test on HOP-92 NSCLC and with SW-620 colon was above 10 µM throughout. The TGI in the test with COLO 205 colon, in the test with HT29 colon and in the test with EKVX NSCLC was above 10 µM throughout.
In the case of `NC1CCCCC1N.O=S(=O)([O-])CCCN1CCN(CCO)CC1.O=S(=O)([O-])CCCN1CCN(CCO)CC1.[Pt+4]`, the GI50 is 13.5 µM in the test with UO-31 renal; 6.05 µM in the test on A498 renal; 10.7 µM in the test on SF-539 CNS; 19 µM with HOP-92 NSCLC; 2.29 µM in the test with SW-620 colon; 1.82 µM in the test with COLO 205 colon. The GI50 in the test with HT29 colon was 0.945 µM; in the test on EKVX NSCLC, 55.4 µM. The TGI was above 100 µM in the test with UO-31 renal; above 100 µM with A498 renal; above 100 µM in the test with SF-539 CNS; 59.3 µM with HOP-92 NSCLC; 21 µM in the test on SW-620 colon; 19.6 µM in the test with COLO 205 colon. Further, the TGI was above 22.1 µM in the test on HT29 colon and above 100 µM with EKVX NSCLC.
Regarding `COc1ccccc1N1C(=O)/C(=C\c2cccc(Oc3ccccc3)c2)S(=O)(=O)C1c1ccccc1` (centres undefined), the TGI in the test on UO-31 renal is above 100 µM; in the test on A498 renal, above 100 µM; with PC-3 prostate, above 100 µM; with HOP-92 NSCLC it was above 100 µM; with SW-620 colon, above 100 µM; in the test with COLO 205 colon, 88.3 µM. The TGI in the test with EKVX NSCLC is above 100 µM.
Regarding `CC1(C)O[C@@H](CP(c2cccc3ccccc23)c2cccc3ccccc23)[C@H](CP(c2cccc3ccccc23)c2cccc3ccccc23)O1`, the TGI in the test with UO-31 renal, in the test with PC-3 prostate, in the test with SW-620 colon, in the test with COLO 205 colon, with HT29 colon and in the test with EKVX NSCLC was above 100 µM throughout.
`COC(=O)[C@@H]1O[C@]12[C@@H](CO[Si](C)(C)C(C)(C)C)O[C@@H](n1cc(C)c(=O)[nH]c1=O)[C@@H]2O[Si](C)(C)C(C)(C)C`: the TGI with HS 578T breast was 42.5 µM; in the test with PC-3 prostate it was 55.7 µM; in the test with SF-539 CNS it was 75.3 µM; with SW-620 colon, 27.9 µM; with COLO 205 colon, above 100 µM; with HT29 colon it was 18.1 µM. Also, in the test on EKVX NSCLC, the TGI amounted to 53.6 µM.
For `CN(CCN(C)C(=O)CCn1ccc(=O)[nH]c1=O)C(=O)CCn1ccc(=O)[nH]c1=O`, the TGI in the test with UO-31 renal, in the test on SF-539 CNS, in the test on SW-620 colon, in the test with COLO 205 colon, in the test on HT29 colon and with EKVX NSCLC was above 100 µM in each case.
In the case of `Cc1cccc(C(O)c2cccnc2)c1O` (centres undefined), the TGI in the test with UO-31 renal, with HS 578T breast, with PC-3 prostate, in the test on SF-539 CNS, in the test on SW-620 colon and with COLO 205 colon was above 100 µM in each case. In addition, the TGI with HT29 colon and in the test with EKVX NSCLC was above 100 µM in each case.
For `CC(C)CC(NC(=O)C(COc1ccc([N+](=O)[O-])cc1)Cc1ccccc1)C(=O)Nc1ccccc1` (centres undefined), the TGI was 24.5 µM in the test on UO-31 renal; 72.2 µM in the test with A498 renal; above 100 µM in the test with PC-3 prostate; 18.9 µM in the test on SF-539 CNS; 34.2 µM in the test on HOP-92 NSCLC; above 100 µM with SW-620 colon. Also, the TGI with COLO 205 colon is above 100 µM; in the test on EKVX NSCLC it was 91.4 µM.
For the compound `CC1(C)CC(=O)C(=CN2C(=O)CNC2=S)C(=O)C1`, the TGI in the test on UO-31 renal, with HS 578T breast, with PC-3 prostate, in the test with SF-539 CNS, in the test on HOP-92 NSCLC and with SW-620 colon was above 100 µM throughout. Besides, the TGI in the test with COLO 205 colon and in the test with EKVX NSCLC was above 100 µM in each case.
For the compound `CC(=O)Nc1ccc(/C=C(\NC(=O)c2ccccc2)C(=O)NNS(=O)(=O)c2ccc(C)cc2)cc1`, the TGI in the test on UO-31 renal was above 100 µM; in the test with SF-539 CNS, above 100 µM; with HOP-92 NSCLC it was above 100 µM; in the test on COLO 205 colon it was 71.2 µM; in the test on HT29 colon it was above 100 µM; in the test on EKVX NSCLC it was above 100 µM.
For `CCCCCCc1cn([C@H]2C[C@H](O)[C@@H](CO)O2)c(=O)[nH]c1=O`, the TGI with UO-31 renal, in the test on A498 renal, in the test on SF-539 CNS, in the test with HOP-92 NSCLC, in the test on SW-620 colon and with HT29 colon was above 100 µM each time. Also, in the test on EKVX NSCLC, the TGI is above 100 µM.
